Experimental data published in PubChem BioAssay (NCI).
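How tested: cells in 96-well plates exposed to compound for 48 hours at five concentrations. Definition used: TGI = concentration required for complete inhibition of growth.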

Tests used:
Experiment in all cases: NCI-60 cell line screen, 48 h
A498 renal = tested on: A498 renal
SK-OV-3 ovarian = tested on: SK-OV-3 ovarian
KM20L2 colon = tested on: KM20L2 colon
ACHN renal = tested on: ACHN renal
SK-MEL-28 melanoma = tested on: SK-MEL-28 melanoma
HCC-2998 colon = tested on: HCC-2998 colon
U251 CNS = tested on: U251 CNS
SK-MEL-5 melanoma = tested on: SK-MEL-5 melanoma
LOX IMVI melanoma = tested on: LOX IMVI melanoma

SMILES	TGI (A498 renal) [µM]	TGI (SK-OV-3 ovarian) [µM]	TGI (KM20L2 colon) [µM]	TGI (ACHN renal) [µM]	TGI (SK-MEL-28 melanoma) [µM]	TGI (HCC-2998 colon) [µM]	TGI (U251 CNS) [µM]	TGI (SK-MEL-5 melanoma) [µM]	TGI (LOX IMVI melanoma) [µM]
COC(=O)C(=O)C(C#N)c1cccc2ccccc12 (centres undefined)	> 100	> 100	> 100	> 100	> 100	> 100	> 100	> 100	> 100
CCc1ccc(Cc2ccc(CC)c(NC(=O)C(=O)Cc3nc4ccccc4nc3C)c2CC)c(CC)c1NC(=O)C(=O)Cc1nc2ccccc2nc1C	> 100	> 100	> 100	> 100	> 100	> 100	> 100	> 100	> 100
CC(=O)NNc1nc(C)c(C(/C=C/c2ccc(/C=C/C(=N\NC(=O)c3ccncc3)c3sc(NNC(C)=O)nc3C)cc2)=N/NC(=O)c2ccncc2)s1	> 100	> 100	> 100	> 100	> 100	> 100	> 100	> 100	> 100
COc1ccc(CN(O)C2C(CO)OC(n3cc(I)c(=O)[nH]c3=O)C2O)cc1 (centres undefined)	> 100	> 100	> 100	> 100	> 100	> 100	> 100	> 100	> 100
C=C1C(=O)OC2C1C(OC(=O)/C(=C/C)COC(C)=O)CC1(CO1)C1C(OC(=O)/C(=C/C)CO)C=C(C)C21 (centres undefined)	8.94	31.3	11.2	4.4	4.16	3.39	35.1	5.05	11.9
O=C(CC(O)(c1ccccc1)c1ccc(Cl)cc1)NC(=O)c1ccccc1O (centres undefined)	8.62	55.4	34.3	99	> 100	21.1	26.5	19.1	23.3
